US9527853B2, “Fused triazole derivatives as gamma secretase modulators” (Ares Trading S.A., priority 2012, dated 2016)

Experiments:
[1] = system: Aβ42; assay: Amyloidβ peptide release (Aβ42) assay, AlphaLisa on supernatant of APPswe-HEK cells; type: cell-based; settings: Homo sapiens, 24 hours incubation with compound, read-out: Ab42 IC50 Ranges
Method: (§1) Amyloidβ Peptide Release (Aβ42 & AβTotal) Assay to Determine IC50 Values.
(§2) Amyloidβ peptide release (Aβ42 & AβTotal) assay are performed in 384 well microtiter plates (Perkin Elmer AlphaPlate #6008350) in a final volume of 20 μl, using supernatant coming from APPswe-HEK cells exposed to test compounds. Compounds are dissolved in and diluted in 100% DMSO and incubated with APPswe-HEK cells for 24 hours a 37° C. in 5% CO2. The supernatant from APPswe-HEK cells are mixed with antibodies: for Aβ42 detection: AlphaLisa Amyloid β 1-42 Kit (Perkin Elmer AL203L) Anti-Amyloid β1-42-specific antibody acceptor beads, biotinylated anti-Amyloid “β1-42” antibody and streptavidin (SA) donor beads diluted in AlphaLisa buffer (to the instructions of the supplier). For Aβ total detection: Custom Anti-Amyloid βtotal acceptor beads (6E10 acceptor beads), biotinylated anti-Amyloid “β1-42” antibody (Perkin Elmer AL203L) and streptavidin (SA) donor beads diluted in AlphaLisa buffer (to the instructions of the supplier). After addition of supernatant to the antibody mix, the assay is incubated 4 h and 30 minutes. AmyloidP peptide release (Aβ42 & AβTotal) is measured with a Pherastar FS (BMG) multimode reader using the alphascreen module.

[2] = system: AβTotal; assay: Amyloidβ peptide release (AβTotal) assay, AlphaLisa on supernatant of APPswe-HEK cells; type: cell-based, human; settings: 24 hours, ratio Abtot versus Ab42
Method: as §1, §2

SMILES: COc1cc(Nc2nnn3c2CCC3c2ccc(F)cc2)ccc1-n1cnc(C)c1 (stereo not drawn) [Example 10, 6-(4-fluorophenyl)-N-(3-methoxy-4-(4-methyl-1H-imidazol-1-yl)phenyl)-5,6-dihydro-4H-pyrrolo[1,2-c][1,2,3]triazol-3-amine]
- IC50 [1]: 150 to 500 nM
- Abtot/Ab42 selectivity ranges [2]: a (a: selectivity ≧ 100 fold)

SMILES: COc1cc(Nc2nnn3c2CCCC3c2ccc(Cl)cc2)ccc1-n1cnc(C)c1 (stereo not drawn) [Example 4, 7-(4-chlorophenyl)-N-(3-methoxy-4-(4-methyl-1H-imidazol-1-yl)phenyl)-4,5,6,7-tetrahydro-[1,2,3]triazolo[1,5-a]pyridin-3-amine]
- IC50 [1]: 150 to 500 nM
- Abtot/Ab42 selectivity ranges [2]: b (b: 100 fold > selectivity ≧ 50 fold)

SMILES: COc1cc(C(=O)Nc2nnn3c2CCC3c2ccc(F)cc2)ccc1-n1cnc(C)c1 (stereo not drawn) [Example 46, N-(6-(4-fluorophenyl)-5,6-dihydro-4H-pyrrolo[1,2-c][1,2,3]triazol-3-yl)-3-methoxy-4-(4-methyl-1H-imidazol-1-yl)benzamide]
- IC50 [1]: 500 to 1000 nM
- Abtot/Ab42 selectivity ranges [2]: c (c: 50 fold > selectivity ≧ 10 fold)

SMILES: COc1cc(NC(=O)c2nnn3c2CCCC3c2ccc(C(F)(F)F)cc2)ccc1-n1cnc(C)c1 (stereo not drawn) [Example 25, N-(3-methoxy-4-(4-methyl-1H-imidazol-1-yl)phenyl)-7-(4-(trifluoromethyl)phenyl)-4,5,6,7-tetrahydro-[1,2,3]triazolo[1,5-a]pyridine-3-carboxamide]
- IC50 [1]: ≤ 150 nM
- Abtot/Ab42 selectivity ranges [2]: c (c: 50 fold > selectivity ≧ 10 fold)

SMILES: COc1cc(NC(=O)c2nnn3c2CCCC3c2cccc(C(F)(F)F)c2)ccc1-n1cnc(C)c1 (stereo not drawn) [Example 22, N-(3-methoxy-4-(4-methyl-1H-imidazol-1-yl)phenyl)-7-(3-(trifluoromethyl)phenyl)-4,5,6,7-tetrahydro-[1,2,3]triazolo[1,5-a]pyridine-3-carboxamide]
- IC50 [1]: 150 to 500 nM
- Abtot/Ab42 selectivity ranges [2]: b (b: 100 fold > selectivity ≧ 50 fold)

SMILES: COc1cc(NC(=O)c2nnn3c2CCC3c2ccc(F)cc2)ccc1-c1cnn(C)c1 (stereo not drawn) [Example 37, 6-(4-fluorophenyl)-N-(3-methoxy-4-(1-methyl-1H-pyrazol-4-yl)phenyl)-5,6-dihydro-4H-pyrrolo[1,2-c][1,2,3]triazole-3-carboxamide]
- IC50 [1]: < 1000 nM
- Abtot/Ab42 selectivity ranges [2]: c (c: 50 fold > selectivity ≧ 10 fold)

SMILES: COc1cc(NC(=O)c2nnn3c2CCC3c2ccccc2Cl)ccc1-c1cnn(C)c1 (stereo not drawn) [Example 33, 6-(2-chlorophenyl)-N-(3-methoxy-4-(1-methyl-1H-pyrazol-4-yl)phenyl)-5,6-dihydro-4H-pyrrolo[1,2-c][1,2,3]triazole-3-carboxamide]
- IC50 [1]: 500 to 1000 nM
- Abtot/Ab42 selectivity ranges [2]: c (c: 50 fold > selectivity ≧ 10 fold)

SMILES: COc1cc(C(=O)Nc2nnn3c2CCC3c2ccc(Cl)c(Cl)c2)ccc1-n1cnc(C)c1 (stereo not drawn) [Example 45]
- IC50 [1]: 150 to 500 nM
- Abtot/Ab42 selectivity ranges [2]: c (c: 50 fold > selectivity ≧ 10 fold)

SMILES: COc1cc(NC(=O)c2nnn3c2CCCC3c2ccc(Cl)cc2)ccc1-c1ccnc(C)c1 (stereo not drawn) [Example 16, 7-(4-chlorophenyl)-N-(3-methoxy-4-(2-methylpyridin-4-yl)phenyl)-4,5,6,7-tetrahydro-[1,2,3]triazolo[1,5-a]pyridine-3-carboxamide]
- IC50 [1]: 150 to 500 nM
- Abtot/Ab42 selectivity ranges [2]: c (c: 50 fold > selectivity ≧ 10 fold)

SMILES: COc1cc(NC(=O)c2nnn3c2CCC[C@H]3c2ccc(Cl)cc2)ccc1-n1cnc(C)c1 [Example 24, (S)-7-(4-chlorophenyl)-N-(3-methoxy-4-(4-methyl-1H-imidazol-1-yl)phenyl)-4,5,6,7-tetrahydro-[1,2,3]triazolo[1,5-a]pyridine-3-carboxamide]
- IC50 [1]: 150 to 500 nM
- Abtot/Ab42 selectivity ranges [2]: b (b: 100 fold > selectivity ≧ 50 fold)

SMILES: COc1cc(Nc2nnn3c2CCCC3c2ccc(Cl)c(Cl)c2)ccc1-n1cnc(C)c1 (stereo not drawn) [Example 5, 7-(3,4-dichlorophenyl)-N-(3-methoxy-4-(4-methyl-1H-imidazol-1-yl)phenyl)-4,5,6,7-tetrahydro-[1,2,3]triazolo[1,5-a]pyridin-3-amine]
- IC50 [1]: 150 to 500 nM
- Abtot/Ab42 selectivity ranges [2]: b (b: 100 fold > selectivity ≧ 50 fold)

SMILES: COc1cc(Nc2nnn3c2CCCC3c2ccc(F)cc2Cl)ccc1-n1cnc(C)c1 (stereo not drawn) [Example 1, 7-(2-chloro-4-fluorophenyl)-N-(3-methoxy-4-(4-methyl-1H-imidazol-1-yl)phenyl)-4,5,6,7-tetrahydro-[1,2,3]triazolo[1,5-a]pyridin-3-amine]
- IC50 [1]: 150 to 500 nM
- Abtot/Ab42 selectivity ranges [2]: b (b: 100 fold > selectivity ≧ 50 fold)

SMILES: Cc1cn(-c2ccc(NC(=O)c3nnn4c3CCCC4c3ccc(Cl)cc3)cc2C#N)cn1 (stereo not drawn) [Example 13, 7-(4-chlorophenyl)-N-(3-cyano-4-(4-methyl-1H-imidazol-1-yl)phenyl)-4,5,6,7-tetrahydro-[1,2,3]triazolo[1,5-a]pyridine-3-carboxamide]
- IC50 [1]: 150 to 500 nM
- Abtot/Ab42 selectivity ranges [2]: c (c: 50 fold > selectivity ≧ 10 fold)

SMILES: COc1cc(Nc2nnn3c2CCCC3c2ccc(F)cc2)ccc1-n1cnc(C)c1 (stereo not drawn) [Example 7, 7-(4-fluorophenyl)-N-(3-methoxy-4-(4-methyl-1H-imidazol-1-yl)phenyl)-4,5,6,7-tetrahydro-[1,2,3]triazolo[1,5-a]pyridin-3-amine]
- IC50 [1]: 150 to 500 nM
- Abtot/Ab42 selectivity ranges [2]: b (b: 100 fold > selectivity ≧ 50 fold)

SMILES: COc1cc(C(=O)Nc2nnn3c2CCCC3c2cccc(C(F)(F)F)c2)ccc1-n1cnc(C)c1 (stereo not drawn) [Example 42, 3-methoxy-4-(4-methyl-1H-imidazol-1-yl)-N-(7-(3-(trifluoromethyl)phenyl)-4,5,6,7-tetrahydro-[1,2,3]triazolo[1,5-a]pyridin-3-yl)benzamide]
- IC50 [1]: 500 to 1000 nM
- Abtot/Ab42 selectivity ranges [2]: c (c: 50 fold > selectivity ≧ 10 fold)

SMILES: COc1cc(Nc2nnn3c2CCC3c2ccccc2Cl)ccc1-n1cnc(C)c1 (stereo not drawn) [Example 11, 6-(2-chlorophenyl)-N-(3-methoxy-4-(4-methyl-1H-imidazol-1-yl)phenyl)-5,6-dihydro-4H-pyrrolo[1,2-c][1,2,3]triazol-3-amine]
- IC50 [1]: 150 to 500 nM
- Abtot/Ab42 selectivity ranges [2]: b (b: 100 fold > selectivity ≧ 50 fold)

SMILES: COc1cc(C(=O)Nc2nnn3c2CCCC3c2ccc(Cl)c(Cl)c2)ccc1-n1cnc(C)c1 (stereo not drawn) [Example 41, N-(7-(3,4-dichlorophenyl)-4,5,6,7-tetrahydro-[1,2,3]triazolo[1,5-a]pyridin-3-yl)-3-methoxy-4-(4-methyl-1H-imidazol-1-yl)benzamide]
- IC50 [1]: 150 to 500 nM
- Abtot/Ab42 selectivity ranges [2]: b (b: 100 fold > selectivity ≧ 50 fold)

SMILES: COc1nc(NC(=O)c2nnn3c2CCCC3c2ccc(Cl)cc2)ccc1-n1cnc(C)c1 (stereo not drawn) [Example 15, 7-(4-chlorophenyl)-N-(6-methoxy-5-(4-methyl-1H-imidazol-1-yl)pyridin-2-yl)-4,5,6,7-tetrahydro-[1,2,3]triazolo[1,5-a]pyridine-3-carboxamide]
- IC50 [1]: 500 to 1000 nM
- Abtot/Ab42 selectivity ranges [2]: c (c: 50 fold > selectivity ≧ 10 fold)

SMILES: COc1cc(C(=O)Nc2nnn3c2CCCC3c2ccc(F)cc2)ccc1-n1cnc(C)c1 (stereo not drawn) [Example 43, N-(7-(4-fluorophenyl)-4,5,6,7-tetrahydro-[1,2,3]triazolo[1,5-a]pyridin-3-yl)-3-methoxy-4-(4-methyl-1H-imidazol-1-yl)benzamide]
- IC50 [1]: < 1000 nM
- Abtot/Ab42 selectivity ranges [2]: a (a: selectivity ≧ 100 fold)

SMILES: Cc1cn(-c2ccc(Nc3nnn4c3CCCC4c3ccc(F)cc3Cl)cc2F)cn1 (stereo not drawn) [Example 3, 7-(2-chloro-4-fluorophenyl)-N-(3-fluoro-4-(4-methyl-1H-imidazol-1-yl)phenyl)-4,5,6,7-tetrahydro-[1,2,3]triazolo[1,5-a]pyridin-3-amine]
- IC50 [1]: 150 to 500 nM
- Abtot/Ab42 selectivity ranges [2]: b (b: 100 fold > selectivity ≧ 50 fold)

SMILES: COc1cc(N(C)C(=O)c2nnn3c2CCCC3c2ccc(Cl)cc2)ccc1-n1cnc(C)c1 (stereo not drawn) [Example 48, 7-(4-chlorophenyl)-N-(3-methoxy-4-(4-methyl-1H-imidazol-1-yl)phenyl)-N-methyl-4,5,6,7-tetrahydro-[1,2,3]triazolo[1,5-a]pyridine-3-carboxamide]
- IC50 [1]: < 1000 nM
- Abtot/Ab42 selectivity ranges [2]: a (a: selectivity ≧ 100 fold)

SMILES: COc1cc(C(=O)Nc2nnn3c2CCCC3c2ccc(F)cc2Cl)ccc1-n1cnc(C)c1 (stereo not drawn) [Example 39, N-(7-(2-chloro-4-fluorophenyl)-4,5,6,7-tetrahydro-[1,2,3]triazolo[1,5-a]pyridin-3-yl)-3-methoxy-4-(4-methyl-1H-imidazol-1-yl)benzamide]
- IC50 [1]: 150 to 500 nM
- Abtot/Ab42 selectivity ranges [2]: b (b: 100 fold > selectivity ≧ 50 fold)

SMILES: COc1cc(NC(=O)c2nnn3c2CCCC3c2ccc(Cl)cc2)ccc1-n1cnc(C)c1 (stereo not drawn) [Example 12, 7-(4-chlorophenyl)-N-(3-methoxy-4-(4-methyl-1H-imidazol-1-yl)phenyl)-4,5,6,7-tetrahydro-[1,2,3]triazolo[1,5-a]pyridine-3-carboxamide]
- IC50 [1]: ≤ 150 nM
- Abtot/Ab42 selectivity ranges [2]: b (b: 100 fold > selectivity ≧ 50 fold)

SMILES: COc1cc(NC(=O)c2nnn3c2CCCC3c2ccc(F)cc2Cl)ccc1-n1cnc(C)c1 (stereo not drawn) [Example 17, 7-(2-chloro-4-fluorophenyl)-N-(3-methoxy-4-(4-methyl-1H-imidazol-1-yl)phenyl)-4,5,6,7-tetrahydro-[1,2,3]triazolo[1,5-a]pyridine-3-carboxamide]
- IC50 [1]: 150 to 500 nM
- Abtot/Ab42 selectivity ranges [2]: c (c: 50 fold > selectivity ≧ 10 fold)
